# Experimental data reported in patent US20210205413A1 (Nektar Therapeutics, priority 2018, published 2021).
# “Also recorded” adds a separate entry of the source.
# Columns and labels:
# CD4+ and CD8+ T cells = test: Phase I single ascending dose study in healthy volunteers: Tcon cells; format: in vivo, human
# Description: A double-blind, randomized, placebo-controlled study is conducted to evaluate the safety, tolerability, pharmacokinetics, and pharmacodynamics of single ascending low sub-cutaneous doses of an RUR20kD-IL-2 composition (RUR20kD-IL-2) in healthy volunteers. […] Twelve subjects are randomized to each dose cohort, nine of whom received a single subcutaneous dose of RUR20kD-IL-2 while three received placebo. […] The drug product is supplied in single-use glass vials and stored at 2-8° C. […] Placebo is a commercially available 0.9% sodium chloride solution. A starting dose of 0.3 μg/kg is chosen using the minimally anticipated biological effect level (MABEL) approach and is supported by the no observed adverse effect level (NOAEL) in the most sensitive species from nonclinical toxicology studies.
# The primary objective of the study is to evaluate the safety and tolerability of RUR20kD-IL-2 administered as a single subcutaneous dose. […] In a first phase of the study, immune markers are tested pre-dose up to 20 hours post-dose. Specifically, Tregs, CD4^+-T cells, CD8^+-T cells, natural killer (NK) cells, cytokines, soluble CD25, and RNA are tested in RUR20kD-IL-2- and placebo-receiving cohorts. In subsequent phases, the same immune markers are also tested at 4-, 5-, 6-, 7-, 8-, 10-, 12-, 15-, 18-, 20-, 25-, 30-, 40, and 50-days post-dose.
# [1] = system: Balb/c mice (KLH DTH model); test: Mouse KLH delayed-type hypersensitivity (DTH) efficacy model, ear swelling; format: in vivo
# Description: Mice are sensitized subcutaneously in their dorsal area with a 100 μl subcutaneous injection containing 100 μg keyhole limpit hemocyanin (KLH) in an emulsion containing Complete Freund's Adjuvant (CFA) and Incomplete Freund's Adjuvant, at a ratio of 1:1:1 respectively. Five days later, baseline ear thickness is measured prior to challenge with 10 μg of KLH intradermally in the left ear, with the right ear remaining untreated. Ear thickness measurements are measured with calipers at 24, 48, 72 and 96 hours post KLH challenge in all groups. […] A positive control consisting of cyclosporin (10 mg/kg, single dose) was administered on day 0.
# [2] = SC q3d, AUC0-96h of change in ear thickness
substance,measurement,setting,value
"(1,3-bis(methoxypoly(ethylene glycol)10kDcarbamoyl)-2-propanoxy)-4-butanamide)interleukin-2) [RUR20kD-IL-2]",absolute number of CD8+ T cells and percentage of Ki67+ CD8+ T cells,CD4+ and CD8+ T cells; single SC 13.5 μg/kg,small increases
same,"percentage or numbers of T cell populations (CD4+, CD8+)","CD4+ and CD8+ T cells; single SC dose, any dose","no changes in percentage or numbers of T cell populations (CD4+, CD8+); also recorded: no changes in percentages or numbers of conventional CD4+ or CD8+ T cells"
same,ear swelling relative to vehicle control,[1]; SC 0.003-0.3 mg/kg every three days,significant dose-dependent decreases in ear swelling
same,dose achieving maximal effect,[1]; [2],0.3 mg/kg
same,minimally effective dose,[1]; [2],0.01 mg/kg
